# Experimental data from ChEMBL document CHEMBL5614413, “Design, synthesis and biological evaluation of amphiphilic benzopyran derivatives as potent antibacterial agents against multidrug-resistant bacteria” (Eur J Med Chem, 2024).
# How the values were obtained:
# Enterococcus faecalis = assay: Antibacterial activity against vancomycin-susceptible Enterococcus faecalis ATCC 29212; format: functional
# [1] = system: Staphylococcus epidermidis; assay: Antibacterial activity erythromycin-susceptible Staphylococcus epidermidis ATCC 12228; format: functional
# Escherichia coli = assay: Antibacterial activity against penicillin-susceptible Escherichia coli ATCC 25922; format: functional
# Pseudomonas aeruginosa = assay: Antibacterial activity against penicillin-susceptible Pseudomonas aeruginosa ATCC 27853; format: functional
# Acinetobacter baumannii = assay: Antibacterial activity against Acinetobacter baumannii ATCC 19606; format: functional
# Staphylococcus aureus [2] = assay: Antibacterial activity against penicillin-resistant Staphylococcus aureus ATCC 31007; format: functional
# Bacillus subtilis = assay: Antibacterial activity against penicillin-susceptible Bacillus subtilis ATCC 9372; format: functional
# [3] = Selectivity index, ratio of HC50 for hemolytic activity in sheep RBC to MIC for antibacterial activity against methicillin-resistant Staphylococcus aureus ATCC 43300; format: toxicity; conditions: sheep red blood cells (erythrocytes), read-out: Selectivity Index
# Klebsiella pneumoniae = assay: Antibacterial activity against Klebsiella pneumoniae ATCC 10031; format: functional
# Staphylococcus aureus [4] = assay: Antibacterial activity against methicillin-resistant Staphylococcus aureus ATCC 43300; format: functional
# Staphylococcus aureus [5] = assay: Antibacterial activity against erythromycin-susceptible Staphylococcus aureus ATCC 25923; format: functional
# [6] = Hemolytic activity in sheep RBC; format: toxicity, cell-based, Ovis aries, Erythrocyte; conditions: sheep red blood cells (erythrocytes)
Compound,MIC (Enterococcus faecalis),MIC [1],MIC (Escherichia coli),MIC (Pseudomonas aeruginosa),MIC (Acinetobacter baumannii),MIC (Staphylococcus aureus [2]),MIC (Bacillus subtilis),selectivity ratio [3],MIC (Klebsiella pneumoniae),MIC (Staphylococcus aureus [4]),MIC (Staphylococcus aureus [5]),HC50 [6]
CC(=O)c1ccc2c(c1OCC(=O)NCCN(C)C)C=CC(C)(CCC=C(C)C)O2 (stereo unspecified),64 µg/mL,64 µg/mL,128 µg/mL,128 µg/mL,64 µg/mL,128 µg/mL,64 µg/mL,4.9,32 µg/mL,128 µg/mL,64 µg/mL,316 µg/mL
COLISTIN,128 µg/mL,64 µg/mL,0.5 µg/mL,0.5 µg/mL,1 µg/mL,128 µg/mL,16 µg/mL,–,1 µg/mL,128 µg/mL,128 µg/mL,–
CC(=O)c1ccc2c(c1OCCCNCCCN1CCN(C)CC1)C=CC(C)(CCC=C(C)C)O2 (stereo unspecified),16 µg/mL,8 µg/mL,16 µg/mL,32 µg/mL,16 µg/mL,16 µg/mL,16 µg/mL,10.5,16 µg/mL,16 µg/mL,16 µg/mL,168 µg/mL
CC(=O)c1ccc2c(c1OCC(=O)NCCCN1CCN(C)CC1)C=CC(C)(CCC=C(C)C)O2 (stereo unspecified),128 µg/mL,128 µg/mL,> 128 µg/mL,> 128 µg/mL,128 µg/mL,128 µg/mL,> 128 µg/mL,1.7,128 µg/mL,128 µg/mL,128 µg/mL,220 µg/mL
CC(=O)c1c(OCCCN(CCCN(C)C)CCCN(C)C)c2c(c3c1OC(C)(CCC=C(C)C)C=C3)OC(C)(CCC=C(C)C)C=C2 (stereo unspecified),4 µg/mL,4 µg/mL,8 µg/mL,128 µg/mL,8 µg/mL,4 µg/mL,4 µg/mL,15.1,8 µg/mL,2 µg/mL,4 µg/mL,30.2 µg/mL
CC(=O)c1c(OCCCN(C)C)c2c(c3c1OC(C)(CCC=C(C)C)C=C3)OC(C)(CCC=C(C)C)C=C2 (stereo unspecified),1 µg/mL,1 µg/mL,> 128 µg/mL,> 128 µg/mL,> 128 µg/mL,2 µg/mL,2 µg/mL,16,> 128 µg/mL,4 µg/mL,2 µg/mL,64 µg/mL
CCNCCCOc1ccc(/C=C/C(=O)c2ccc3c(c2OC)C=CC(C)(CCC=C(C)C)O3)cc1 (stereo unspecified),4 µg/mL,1 µg/mL,> 128 µg/mL,> 128 µg/mL,> 128 µg/mL,8 µg/mL,8 µg/mL,7.5,32 µg/mL,8 µg/mL,8 µg/mL,59.9 µg/mL
CC(=O)c1ccc2c(c1OCCCN(CCCN(C)C)CCCN(C)C)C=CC(C)(CCC=C(C)C)O2 (stereo unspecified),64 µg/mL,32 µg/mL,16 µg/mL,64 µg/mL,16 µg/mL,64 µg/mL,32 µg/mL,5.1,16 µg/mL,32 µg/mL,64 µg/mL,325 µg/mL
CC(=O)c1c(OCCCN2CCOCC2)c2c(c3c1OC(C)(CCC=C(C)C)C=C3)OC(C)(CCC=C(C)C)C=C2 (stereo unspecified),> 128 µg/mL,> 128 µg/mL,> 128 µg/mL,> 128 µg/mL,> 128 µg/mL,> 128 µg/mL,> 128 µg/mL,< 10,> 128 µg/mL,> 128 µg/mL,> 128 µg/mL,> 128 µg/mL
CCCCN(CCCC)CCCNC(=O)COc1c(C(C)=O)ccc2c1C=CC(C)(CCC=C(C)C)O2 (stereo unspecified),32 µg/mL,32 µg/mL,> 128 µg/mL,> 128 µg/mL,128 µg/mL,16 µg/mL,4 µg/mL,33.8,128 µg/mL,8 µg/mL,16 µg/mL,270 µg/mL
COc1c(C(=O)/C=C/c2ccc(OCCCN)cc2)ccc2c1C=CC(C)(CCC=C(C)C)O2 (stereo unspecified),16 µg/mL,8 µg/mL,8 µg/mL,16 µg/mL,16 µg/mL,16 µg/mL,8 µg/mL,13.8,16 µg/mL,8 µg/mL,8 µg/mL,111 µg/mL
CNCCCOc1c(C(C)=O)ccc2c1C=CC(C)(CCC=C(C)C)O2 (stereo unspecified),4 µg/mL,4 µg/mL,16 µg/mL,64 µg/mL,8 µg/mL,8 µg/mL,8 µg/mL,–,16 µg/mL,16 µg/mL,8 µg/mL,90.1 µg/mL
CCN(CC)C(=O)COc1c(C(C)=O)ccc2c1C=CC(C)(CCC=C(C)C)O2 (stereo unspecified),> 128 µg/mL,> 128 µg/mL,> 128 µg/mL,> 128 µg/mL,128 µg/mL,> 128 µg/mL,> 128 µg/mL,1,> 128 µg/mL,128 µg/mL,> 128 µg/mL,131 µg/mL
CC(=O)c1ccc2c(c1OCCCN1CCOCC1)C=CC(C)(CCC=C(C)C)O2 (stereo unspecified),> 128 µg/mL,> 128 µg/mL,> 128 µg/mL,> 128 µg/mL,128 µg/mL,> 128 µg/mL,128 µg/mL,< 4.4,> 128 µg/mL,> 128 µg/mL,> 128 µg/mL,560 µg/mL
CC(=O)c1ccc2c(c1OCCCN1CCCC1)C=CC(C)(CCC=C(C)C)O2 (stereo unspecified),16 µg/mL,8 µg/mL,> 128 µg/mL,> 128 µg/mL,32 µg/mL,16 µg/mL,16 µg/mL,–,8 µg/mL,16 µg/mL,32 µg/mL,366 µg/mL
CCCCN(CCCC)CCCNCCCOc1c2c(c3c(c1C(C)=O)OC(C)(CCC=C(C)C)C=C3)OC(C)(CCC=C(C)C)C=C2 (stereo unspecified),1 µg/mL,1 µg/mL,8 µg/mL,128 µg/mL,4 µg/mL,2 µg/mL,4 µg/mL,9.2,8 µg/mL,4 µg/mL,1 µg/mL,36.7 µg/mL
CC(=O)c1ccc2c(c1OCC(=O)NCCCN1CCOCC1)C=CC(C)(CCC=C(C)C)O2 (stereo unspecified),128 µg/mL,128 µg/mL,> 128 µg/mL,> 128 µg/mL,128 µg/mL,128 µg/mL,128 µg/mL,4.1,128 µg/mL,64 µg/mL,128 µg/mL,261 µg/mL
CC(=O)c1c(OCCCNCCCN2CCCC2)c2c(c3c1OC(C)(CCC=C(C)C)C=C3)OC(C)(CCC=C(C)C)C=C2 (stereo unspecified),4 µg/mL,4 µg/mL,16 µg/mL,128 µg/mL,16 µg/mL,4 µg/mL,8 µg/mL,4.9,8 µg/mL,4 µg/mL,4 µg/mL,19.7 µg/mL
CC(=O)c1ccc2c(c1OCCCN1CCSCC1)C=CC(C)(CCC=C(C)C)O2 (stereo unspecified),> 128 µg/mL,> 128 µg/mL,> 128 µg/mL,> 128 µg/mL,128 µg/mL,> 128 µg/mL,> 128 µg/mL,< 10,> 128 µg/mL,> 128 µg/mL,> 128 µg/mL,> 1280 µg/mL
COc1c(C(=O)/C=C/c2ccc(OCCCNCCN(C)C)cc2)ccc2c1C=CC(C)(CCC=C(C)C)O2 (stereo unspecified),2 µg/mL,2 µg/mL,4 µg/mL,128 µg/mL,8 µg/mL,4 µg/mL,2 µg/mL,67.6,16 µg/mL,4 µg/mL,8 µg/mL,270 µg/mL
CC(=O)c1ccc2c(c1OCCCN(C)CCCN(C)C)C=CC(C)(CCC=C(C)C)O2 (stereo unspecified),16 µg/mL,16 µg/mL,8 µg/mL,32 µg/mL,8 µg/mL,32 µg/mL,16 µg/mL,10,8 µg/mL,16 µg/mL,16 µg/mL,160 µg/mL
CC(=O)c1c(OCCCN2CCSCC2)c2c(c3c1OC(C)(CCC=C(C)C)C=C3)OC(C)(CCC=C(C)C)C=C2 (stereo unspecified),> 128 µg/mL,> 128 µg/mL,> 128 µg/mL,> 128 µg/mL,> 128 µg/mL,> 128 µg/mL,> 128 µg/mL,< 6.6,> 128 µg/mL,> 128 µg/mL,> 128 µg/mL,844 µg/mL
CCN(CC)CCCNCCCOc1c(C(C)=O)ccc2c1C=CC(C)(CCC=C(C)C)O2 (stereo unspecified),8 µg/mL,8 µg/mL,8 µg/mL,16 µg/mL,8 µg/mL,16 µg/mL,8 µg/mL,17.5,8 µg/mL,8 µg/mL,8 µg/mL,140 µg/mL
CC(=O)c1ccc2c(c1OCC(=O)NCCCN1CCCC1)C=CC(C)(CCC=C(C)C)O2 (stereo unspecified),64 µg/mL,64 µg/mL,> 128 µg/mL,> 128 µg/mL,128 µg/mL,32 µg/mL,64 µg/mL,5.2,64 µg/mL,32 µg/mL,32 µg/mL,167 µg/mL
CC(=O)c1ccc2c(c1OCC(=O)N(CCCN)CCCN)C=CC(C)(CCC=C(C)C)O2.Cl.Cl (stereo unspecified),> 128 µg/mL,128 µg/mL,> 128 µg/mL,> 128 µg/mL,> 128 µg/mL,> 128 µg/mL,32 µg/mL,13,> 128 µg/mL,128 µg/mL,> 128 µg/mL,1670 µg/mL
